From US5958682A (priority 1993, dated 1999)
Entries after “also recorded” stand apart in the source; their conditions may differ.

What was measured:
[1] = system: V79 cells
Method: NADH was used as a co-factor for both enzymes.
All treatments were for 2 hours at 37° C. and the cells were then plated out for their resulting colony forming ability. The nitroreductase concentration was 2 μg/ml and NADH was used as a co-factor. The initial cell density was 2×10^5 /mL.
Various concentrations of the prodrug were incubated with 1 mL of V79 cells (2×10^5 /mL), NADH (500 μL) and NR (2, 5 or 10 μg/mL) in PBS. After 2 h at 37° C., the cells were harvested and assayed for colony forming ability.

[2] = target: E. coli nitroreductase (Escherichia coli, UniProt P38489); test: % drug reduction by E. coli nitroreductase during V79 cell treatment; format: biochemical; settings: 2 hours at 37° C.
Source text: The initial cell density was 2×10^5 /mL.

[3] = system: nitroreductase-transduced NIH3T3 cells; test: Bystander effect, 3H-thymidine incorporation in mixtures of 3T3-NTR14 and untransduced NIH3T3 cells; format: cell-based; settings: 50% transduced cells, FIG. 2
Source text: FIG. 2. […] Results are plotted as the quantity of ^3 H-thymidine incorporation into live cells […] (Y-axis) versus the percentage of transduced cells in the sample population (X-axis).

[4] = system: NTR-expressing NIH3T3 cells; test: Killing of serum-deprived (arrested) NTR-expressing NIH3T3 cells; format: cell-based; settings: arrest by serum deprivation, FIG. 3a
Source text: (§1) FIG. 3. Two graphs comparing the nitroreductase/CB 1954 and thymidine kinase/gancyclovir enzyme/prodrug systems.

[5] = system: HB4a/NR cells; test: Enzymatic reduction of CB 1954 by HB4a/NR cell lysate (HPLC); format: biochemical, human; settings: 100 μM CB 1954, 500 μM NADH, pH7, 37° C., FIG. 5
Method: CB 1954 (100 μM) and NADH (500 μM) were incubated with a cell lysate prepared by sonication (250 μl, 1 mg/mL protein) in 10 mM sodium phosphate buffer (pH7) at 37° C. At various times aliquots (10 μl) were injected onto a Partisphere SCX (110×4.7 mm) HPLC column and eluted isocratically (2 ml/min) with 50 mM NaH2 PO4 in 1% (v/v) methanol. The eluate was continuously monitored for absorption at 260, 310, 340 nm using a diode-array detector. Alternatively, [U-^3 H]CB 1954 was added to give an activity of 1.6×10^5 dpm per nmole). Samples (0.3 ml) were collected and their tritium activity determined by liquid scintillation counting. Protein concentration was determined by a standard method (Biorad), calibrated against bovine albumin.

[6] = system: HB4a/NR cells; test: Cell survival of HB4a/NR cells, plates scored by eye for cell growth; format: cell-based, human; settings: 2 hour exposure
Method: (§2) Cells were trypsinised and resuspended in fresh media at 2×10^5 cells per mL. They were then treated for two hours with CB 1954 (10 μl of appropriate stock in DMSO). The treated cells were then spun down, washed with fresh media, and plated out in triplicate at various concentrations. Cells were fixed and stained after 14 days incubation at 37° C. in a humidified atmosphere of 5% CO2 and 95% air.
(§3) The plating efficiency of both the HB4a/NR and HB4a/REP8 cell lines was poor and cells only grew when plated at a high initial cell density (1×10^4 per dish). These plates were scored by eye for cell growth. There is a dramatic difference in cell survival between the two cell lines.

[7] = Cell survival of HB4a/REP8 cells, plates scored by eye for cell growth; format: cell-based; settings: human, 2 hour exposure, read-out: dose up to which no cytotoxicity is shown
Method: as §2, §3

[8] = system: HB4a/NR cells; test: DNA interstrand crosslinks, sedimentation in alkaline sucrose; format: cell-based, human
Method: HB4a/NR cells were radiolabelled by growth for 48 hours in [^3 h]-thymidine. The cells were then treated with either 0, 10 or 50 μM CB 1954 for 24 hours and their DNA then analysed by sedimentation in alkaline sucrose.

[9] = system: TK-expressing NIH3T3 cells; test: Killing of arrested TK-expressing NIH3T3 cells; format: cell-based; settings: 10^-8 to 10^-3 M, FIG. 3b
Source text: as §1

[10] = 50 μM drug + 500 μM NADH, no nitroreductase
[11] = 50 μM drug + nitroreductase 2 μg/ml + 500 μM NADH
[12] = 50 μM drug + nitroreductase 2 μg/ml, no NADH
[13] = 50 μM drug alone, no NADH, no nitroreductase

In the case of `Cc1c2oc3c(C)ccc(C(=O)N[C@@H]4C(=O)N[C@H](C(C)C)C(=O)N5CCC[C@H]5C(=O)N(C)CC(=O)N(C)[C@@H](C(C)C)C(=O)O[C@@H]4C)c3nc-2c(C(=O)N[C@@H]2C(=O)N[C@H](C(C)C)C(=O)N3CCC[C@H]3C(=O)N(C)CC(=O)N(C)[C@@H](C(C)C)C(=O)O[C@@H]2C)c(NC(=O)OCc2ccc([N+](=O)[O-])cc2)c1=O`, the “cytotoxicity of the prodrug in the presence of NR” value ([1]; NR 2, 5 or 10 μg/mL, NADH, 2 h at 37° C., FIG. 1) is reported as “greatly enhanced in the presence of NR”.

In the case of `NC(=O)c1cc(N2CC2)c([N+](=O)[O-])cc1[N+](=O)[O-]` [CB 1954, 5-(aziridin-1-yl)-2,4-dinitrobenzamide], the “% DRUG REDUCTION” value [2, 10] is reported as under 1.0%, the “% DRUG REDUCTION” value [2, 11] is reported as 72% and the “% DRUG REDUCTION” value [2, 12] is reported as under 1.0%. The “% DRUG REDUCTION” value [2, 13] was under 1.0%, the “inhibition of 3H-thymidine incorporation” value [3] was 90% and the “effect of cell arrest on killing by the prodrug” value [4] was “does not affect their killing; also recorded: does not affect the relative cytotoxicity”. For the same molecule, the “decrease in the concentration of CB 1954” value [5] was “time dependent decrease”, the “dose at which cytotoxicity is exhibited” value [6] was 1.0 µM and the MNTC at 2 h [7] was over 100 µM. The DNA breaks ([8]; 10 μM CB 1954 for 24 hours) was 25 per 10^9 daltons of DNA, the DNA crosslinks ([8]; 10 μM CB 1954 for 24 hours) was “about 6 per 10^9 daltons of DNA” and the DNA breaks ([8]; 50 μM CB 1954 for 24 hours) was 28 per 10^9 daltons of DNA. For the same molecule, the DNA crosslinks ([8]; 50 μM CB 1954 for 24 hours) was 12 per 10^9 daltons of DNA.

For `Nc1nc(O)c2ncn(COC(CO)CO)c2n1` [GCV, gancyclovir], the “effect of cell arrest on killing by the prodrug” value [9] was “prevents GCV killing; also recorded: prevents gancyclovir (GCV) cytotoxicity”.

For `NC(=O)c1cc(N(CCCl)CCCl)c([N+](=O)[O-])cc1[N+](=O)[O-]` [SN23862, 5-(bis(2'-chloroethyl)amino)-2,4-dinitrobenzamide], the “% DRUG REDUCTION” value [2, 10] was under 1.0%, the “% DRUG REDUCTION” value [2, 11] was 95% and the “% DRUG REDUCTION” value [2, 12] was under 1.0%. The “% DRUG REDUCTION” value [2, 13] was under 1.0%.

B1: Nitroreductase: E. coli nitroreductase, enzyme that converts the prodrug into a cytotoxic drug (protein)
chain: MDIISVALKRHSTKAFDASKKLTPEQAEQIKTLLQYSPSSTNSQPWHFIVASTEEGKARVAKSAAGNYVFNERKMLDASHVVVFCAKTAMDDVWLKLVVDQEDADGRFATPEAKAANDKGRKFFADMHRKDLHDDAEWMAKQVYLNVGNFLLGVAALGLDAVPIEGFDAAILDAEFGLKEKGYTSLVVVPVGHHSVEDFNATLPKSRLPQNITLTEV
With B1 the “% SURVIVAL” value ([1]; nitroreductase 2 μg/ml alone, no drug, 2 hours at 37° C.) was 94%.
